According to US20070116645A1, “Methods and compositions for inhibiting cholesterol uptake” (priority 2004, published 2007):
Entries after “also recorded” stand apart in the source; their conditions may differ.

Tests used:
[1] = test system: CAV1-ANX2b heterocomplex; experiment: Immunoprecipitation and immunoblot for the CAV1-ANX2b heterocomplex in morpholino-injected embryos; assay type: in vivo, zebrafish; conditions: for CAV1-ANX2b heterocomplex present / ANX2b protein detected / CAV1 protein detected: 48 hpf embryos, MO injected at 1-8 cell stage; for ANX2b protein detected / CAV1 protein detected: FIG. 3A
Experimental: (§1) All morpholino oligonucleotides were commercially obtained (GeneTools LLC, Philomath, Oreg.). Sequences used were: cav1, 5′-[…]-3′ (SEQ ID NO: 10); anx2b, 5′-[…]-3′ (SEQ ID NO: 11); anx2b (4 base mismatch), 5′-GCCAATT TCGTTAGTAGTTGAAGAG-3 (SEQ ID NO: 12)′; anx2a, 5′-[…]-3′ (SEQ ID NO: 13). MOs were dissolved in Danieau buffer (3) at a concentration of (1-3 μg/μl) and pressure injected into the yolk of early stage larvae (1-8 cell stage) as described (3).
The embryos were lysed in 1 ml of buffer (150 mM NaCl, 1.0% NP-40, 0.5% deoxycholate, 0.1% SDS, 50 mM Tris, pH 8.0) and protein amounts determined by Lowry. Equal amounts of lysate (50 ug) were mixed together in the lysis buffer for 1 hour at 37 °C. At the end of the incubation protein A-sepharose beads (blocked with lysis buffer and 30 mg/ml BSA) were used to pre-clear the samples. Pre-cleared samples were than incubated for 18 hours at 4° C. with the appropriate antibody (2 ug/sample) before adding blocked, protein A-sepharose beads and incubating an additional 2 hours at 4° C. The beads were collected by centrifugation, washed five times in high salt RIPA buffer (500 mM NaCl). The samples were than analyzed by SDS-PAGE and immunoblot.

[2] = test system: zebrafish embryos; experiment: Embryo lipid composition by SPE and GC-MS (cholesterol, cholesteryl ester, triglycerides); assay type: in vivo; conditions: 72 hpf embryos, FIG. 5C
Experimental: Approximately 80 embryos at 72 hpf were placed in 0.7 ml of MBST/OG (25 mM MES, pH 6.5, 0.15 M NaCl, 1% (v/v) Triton X-100, 60 mM octylglucoside, 0.1% (w/v) SDS) and homogenized with a Tissue-Tearor™ homogenizer (Biospec Products, Inc). The sample was then sonicated (50 watts) for ten seconds, three times on ice, centrifuged at 1000×g for 5 minutes and the supernatant collected. Neutral lipids were isolated by Solid Phase Extraction (SPE) on an Oasis HLB 5 cc/200 mg LP Glass Cartridges (Waters, Milford Mass.). The columns were pre-conditioned with 3 ml of methyl tetr-butyl ether, then 3 ml methanol, and finally 3 ml of water. The sample (0.5 ml) was mixed with acetic acid (1 ml) and 5α-androstane-3α-17β-diol (recovery standard, 40 μl) and immediately applied to the column. The column was washed with 2 ml of 2% acetic acid followed by 2 ml of methanol (2%):acetic acid (2%). Neutral lipids were eluted with 3 ml of methyl tetr-butyl ether:methanol:acetic acid (75:23:2). The eluted material was dried under nitrogen, dissolved in 150 μl of hexane:isopropanol (3:2) and transferred to a gas chromatography vial. The material was dissolved in 20 μl of hexamethyldisilazane: pentafluoropropionic anhydride:acetonitrile (100:2:20) for 20 minutes at room temperature and […] was then injected onto a Chemstation gas chromatograph with a mass selective detector, Model 6890 (Agilent Technologies, Wilmington, Del.) and equipped with a SPE HT5 Aluminum Clad Fused Silica Capillary Column, 12 m, 0.32 mm ID, 0.1 um film (Supelco, Bellefonte, Pa.). The inlet temperature was 220° C., the interface temperature was 340° C. and the oven program was 140° C., hold 3 min, 20° C./min to 380° C., hold 5 min. Method of lipid detection was SIM mode with the following mass numbers: 416 for 5α-androstane-3α-17β-diol, 436 for TMS-cholesterol, 368 for cholesterol esters, 98 for triglycerides. A two step procedure was used to quantify the lipids. […]

[3] = test system: zebrafish embryos; experiment: Developmental phenotype of morpholino-injected embryos (morphology, myoD in situ hybridization); assay type: in vivo
Experimental: as §1
Methods for breeding and raising zebrafish were followed as described (21). Embryos were obtained from natural matings of wild-type (Oregon, AB) fish and staged according to criteria previously outlined (22) and by hours post-fertilization (hpf). Digoxigenin-labeled RNA probes synthesized for each gene were hybridized to embryos or larvae at various developmental stages. In situ hybridization for anx2b and cav1 expression was carried out as previously described (22).

[4] = test system: zebrafish embryos; experiment: Uptake of 14C-labeled glucose in embryos; assay type: in vivo; conditions: 5 dpf embryos, data not shown
Experimental: Embryos (uninjected or anx2b MO injected) at 5 dpf were placed at ten per tube in 0.5 ml embryo medium (21) containing methyl-D-glucose, 3-O-[glucose-^14C(U)] (American Radiolabeled Chemicals, Inc.) at a concentration of 12.5 μM and incubated at room temperature for 2 hours. Embryos were then chased with 0.5 ml embryo medium with 125 μM unlabeled glucose and incubated 30 minutes, then rinsed three times with chase solution, transferred to fresh tubes, vigorously homogenized with a pestle, and transferred into scintillation fluid for liquid scintillation counting. Three separate trials with 2 or 3 tubes each of uninjected and injected embryos were performed.

[5] = test system: zebrafish larvae; experiment: In vivo assay for cholesterol transport (NBD-cholesterol intestinal fluorescence); conditions: 5 dpf larvae, three independent experiments, ANOVA p<0.00001
Experimental: Embryos (uninjected or anx2b MO injected) at 5 dpf were labeled with NBD-cholesterol (1,26) and blind-sorted into three groups based on intestinal fluorescence, each assigned a numerical value: 1=no or weak fluorescence, 2=moderate, 3=strong; total n=41 uninjected, 55 injected.
Zebrafish larvae were labeled (2 h) with NBD-Cholesterol prepared as previously described (1) in embryo medium (21), anesthetized (tricaine, 170 ug/ml) and placed in depression slides. Fluorescent images were captured using a Zeiss Axiocam 2 mounted on a Leica MZFL-III. For statistical analysis intestinal fluorescence was scored on a three point scale (weak, moderate and bright) and analyzed (ANOVA).

Substance	CAV1-ANX2b heterocomplex present [1]	ANX2b and complex detected (duration of MO effect) ([1]; 24, 48 and 72 hpf, FIG. 5B lanes 2-4)	ANX2b protein detected [1]	CAV1 protein detected [1]	ANX2b detected (duration of MO effect) ([1]; 96 hpf, FIG. 5B lane 5)	Level of cholesterol versus uninjected embryos [2]	Level of cholesteryl ester versus uninjected embryos [2]	Level of triglycerides versus uninjected embryos [2]	Developmental abnormalities ([3]; zebrafish, in vivo)	Uptake of 14C-labeled glucose versus uninjected embryos [4]	Intestinal fluorescence after feeding NBD-cholesterol [5]	Survival to the stage where NBD-cholesterol is ingested ([3]; MO-injected larvae)	Somite morphology (myoD riboprobe) ([3]; zebrafish, in vivo)
anx2a MO: morpholino antisense oligonucleotide against zebrafish anx2a, 5′-CTAAGAACTCAGAGACCAAAGCCAT-3′ (SEQ ID NO: 13) (all phosphorodiamidate morpholino (PMO)) [reference compound]	contained the CAV1-ANX2b heterocomplex exactly like the uninjected embryos	–	–	–	–	–	–	–	–	–	–	–	–
anx2b MO containing 4 bases mismatched: control morpholino, anx2b with 4 base mismatch, 5′-GCCAATT TCGTTAGTAGTTGAAGAG-3 (SEQ ID NO: 12) (antisense GCCAATTTCGTTAGTAGTTGAAGAG; all phosphorodiamidate morpholino (PMO); mismatch control morpholino) [reference compound]	contained the CAV1-ANX2b heterocomplex exactly like the uninjected embryos	–	–	–	–	–	–	–	–	–	–	–	–
anx2b MO: morpholino antisense oligonucleotide against zebrafish anx2b, 5′-GCCATTTTCCTTAGTTGTTGTAGAG-3′ (SEQ ID NO: 11) (all phosphorodiamidate morpholino (PMO))	only CAV protein monomer	no ANX2b and thus no complex is detected	did not contain ANX2b protein	only detected as a monomer	again detected	significantly lower	significantly lower	unaffected	did not show any obvious developmental abnormalities	the same	a subset of the injected larvae failed to accumulate the fluorescent cholesterol analog in the digestive tract; also recorded: significant reduction in intestinal fluorescence	–	–
cav1 MO: morpholino antisense oligonucleotide against zebrafish cav1, 5′-TGTCCCGTCCTTGTATCCGCTAGTC-3′ (SEQ ID NO: 10) (all phosphorodiamidate morpholino (PMO))	only ANX2 protein monomer and no complex	–	seen only as a monomer	not detected	–	–	–	–	early developmental abnormalities including defects in axis elongation and somite patterning	–	–	failed to survive to a stage where NBD-cholesterol is ingested	abnormal somites
